The text below walks through data of patent US20260216220A1, “TREATMENT OF MYELOPEROXIDASE-POSITIVE ANCA-ASSOCIATED VASCULITIS WITH H2S RELEASING COMPOUNDS” (DEBRECENI EGYETEM, priority 2022, published 2026).

The subject of experiment [1] is mouse model of MPO-ANCA vasculitis. As to the kind of experiment: ANCA vasculitis mouse model (anti-MPO splenocyte transfer into Rag2−/− mice), kidney histology. In kind it is in vivo. The settings on record: ATB 60 μmol/kg, administered orally (per os).
Method: MPO knockout mice were immunized with mouse MPO based on the following protocol. On day 1 200 μl of 20 μg murine MPO (mMPO) or BSA in total with Complete Freud's Adjuvant were injected to MPO KO mice. 30-40 μl were injected to the backfoot footpads and 120-160 μl were injected subcutaneously in the abdominal region. On day 14 20 μg mMPO/BSA were injected IP with incomplete Freud's Adjuvant and on day 28 mice were boosted with 20 μg mMPO/BSA in DPBS buffer IP. 10 days after boost blood was drawn from eye corner under isoflurane anesthesia and antibody titers were checked by anti-MPO ELISA. If titer were low mice were boosted again with 20 μg mMPO or BSA and titer were checked again 7 days later. If titers were appropriate mice were terminated and splenocytes were isolated. […] The remaining red blood cells were lysed with Red Blood Cell Lysis Buffer according to manufacturer's instructions. […] Cells were counted using trypan blue solution, the total cell count varied between 3×10^7 and 6×10^7. Splenocytes derived from 1 mouse were injected into 2 Rag2−/− immunodeficient mice intravenously. […] After 4 weeks antibody titers were checked with anti-MPO ELISA. […]
The percentage of affected glomeruli in treated samples were calculated compared to their control pairs.
The subject of experiment [2] is neutrophils. The note with it: cited from earlier work.
Experiment [3] concerns neutrophils. In words: Neutrophil phagocytosis of fluorescent Escherichia coli K-12 BioParticles (Vybrant kit). The note with it: GYY4137 10-100 μM, 2 hours. In kind it is cell-based, human.
Method: Phagocytosis experiments were carried out with the Vybrant™ Phagocytosis Assay Kit based on manufacturers instruction. Briefly, Fluorescent-labeled Escherichia coli K-12 BioParticles, and trypan blue stock solutions were prepared. […] 1 hour or 5 minutes prior to the addition of the fluorescent BioParticles suspension. After 2 hours the BioParticle solution was removed, 100 μl trypan blue solution was added immediately, and incubated for 1 minute at room temperature. Trypan blue was removed and 100 μl HBSS was added to each well. Fluorescence was measured at the excitation and emission wavelengths of 480 and 520 nm respectively. Samples for microscopy analysis were prepared similarly with the cell number of 2×10^5/well in EZ slide chamber slides.
Experiment [4] concerns PMA activated neutrophils.
Experiment [5] relates to neutrophils. The note with it: cited from earlier work. This is another data set of the same source.
In experiment [6] the test system is PMA-activated neutrophils.
Setting [7] is: upon PMA and bacterial activation.

Read-outs that look alike come from different tables or passages of the source.

Regarding `COc1ccc2cc(C(C)C(=O)Oc3ccc(C(N)=S)cc3)ccc2c1` (stereo not drawn) [ATB346], the “efficacy on kidney damage in ANCA mouse model” value is listed as “nor proved to be beneficial in reducing kidney damage” in experiment [1] and “proved to be inefficient” in experiment [1] (listed as ATB).

Consider `N[C@@H](CS)C(=O)O` [cysteine], for which, in experiment [2] (setting [7]), the neutrophil apoptosis entry was “inhibited neutrophil apoptosis” and the oxidative burst result is “promoted oxidative burst”.

Turning to `C=C1[C@@H](C)[C@H]2[C@H](Cc3ccccc3)NC(=O)[C@]23[C@H](OC(C)=O)/C=C/[C@@](C)(O)C(=O)[C@@H](C)C/C=C/[C@H]3[C@@H]1O` [cytochalasin D], in experiment [3], the “phagocytosis of E. coli Bioparticles (fluorescent microscopy)” value is recorded as “inhibited”.

Turning to `C=CCSSCC=C` [diallyl-disulfide], in experiment [2] (setting [7]), the neutrophil apoptosis result is on record as “inhibited neutrophil apoptosis” and the oxidative burst result is on record as “promoted oxidative burst”.

Take `C=CCSSSCC=C` [diallyl-trisulfide]: in experiment [2] (setting [7]), the neutrophil apoptosis entry is “inhibited neutrophil apoptosis” and the oxidative burst result is “promoted oxidative burst”.

In the case of sodium sulfide, the “H2O2 production by PMA-activated neutrophils (FOX assay)” value in experiment [4] was “not affected”. For the same molecule, in experiment [5], the “killing of bacteria by neutrophils” value is “more efficient in killing bacteria” and the neutrophil apoptosis result is on record as “diminished neutrophil apoptosis”. For the same molecule, the “β-glucuronidase activity in supernatants (degranulation), PMA activation” value in experiment [6] is on record as “no effect on the enzymatic activity”. In experiment [2], the neutrophil apoptosis result is recorded as “inhibited neutrophil apoptosis” and the oxidative burst result is “promoted oxidative burst”.
